Laboratory results published in patent US7033829B2, “Method to inhibit cell growth using oligonucleotides” (Trustees of Boston University, priority 2000, dated 2006).
Oligonucleotides are written 5' to 3', each unit as a sugar letter and its base; * is a phosphorothioate linkage, no mark a phosphodiester; rarer units and linkages stand in square brackets, end groups in braces. Plain capitals give the bases only. d = 2'-deoxy (DNA); {P} = phosphate

Legend:
Assay type in all cases: cell-based, human
[1] = test system: GADD 45, ERCC 3 and SDI 1 mRNA; assay: Northern blot of GADD 45, ERCC 3 and SDI 1 in SCC12F cells; conditions: 100 μM; as early as 24 hours, several days
Method: Paired cultures of SCC12F cells were maintained in a Dulbecco's modified Eagle's Medium-based keratinocyte growth medium (DMEM; GIBCO/BRL, Gaithersburg, Md.) supplemented with 10% fetal calf serum (Hyclone Labs, Logan, Utah) and epidermal growth factor as described (Hollander, M. C. et al., J. Biol. Chem. 268:328–336 (1992)). Pre-confluent cultures were given fresh medium supplemented with either 100 μM T2, or an equal volume of diluent. Cells were collected daily after additions, and processed for total RNA isolation using the Tri-Reagent extraction method (Molecular Research Center, Cincinnati, Ohio) following the protocol of the manufacturer. Ten micrograms of RNA from each sample was gel electrophoresed, transferred to a nylon filter and probed as described previously (Nada, A. et al., Exp. Cell Res. 211:90–98 (1994)). The cDNA for GADD 45 was generated by PCR using primers based on the human GADD 45 gene sequence (Mitsudomi, T. et al., Oncogene 7:171–180 (1992)). The cDNA for ERCC 3 was purchased from the American Type Culture Collection (ATCC, Rockville, Md.). The SDI 1 cDNA was a gift of Dr. J. Smith and has been described previously (Walworth, N.C. and Bernards, R., Science 271:353–356 (1996)).

[2] = test system: BP DNA adducts (CAT reporter plasmid) in H1299 cells; assay: Repair of BP-damaged CAT reporter plasmid in H1299 cells
Method: Preconfluent cultures of H1299 cells were transfected with an expression vector containing the wild type human p53 cDNA under the control of the human cytomegalovirus promoter/enhancer (Dr. Bert Vogelstein, Johns Hopkins Oncology Center). Control transfections were performed using the same vector lacking the p53 cDNA. Transfections were carried out as described previously.
The pCAT vector (Promega) was treated with benzo[a]pyrene-7,8-diol-9,10-epoxide (BP) as described (Athas et al. Cancer Res 1991) to produce less damaged and more damaged plasmids, previously shown to be instructive in studies examining different repair capacities in human cells. Based on the incorporation of ^3H-BPDE into the DNA, the less damaged plasmid contained 25 adducts per 5 kb plasmid and the more damaged plasmid contained 50 adducts. This non-replicating vector contains the chloramphenicol acetyltransferase gene under control of SV40 promoter and enhancer sequences. Human keratinocytes and p53-transfected H1299 cells were pre-treated with either 100 μM pTpT or an equal volume of diluent (DMEM) alone for 48 hours, then transfected with either BP-modified pCAT-control vector (0.5 μg/ml) or unmodified vector (0.5 μg/ml) together with PSV-β-galactosidase control vector (0.5 μg/ml). Cells were collected in a reporter lysis buffer (Promega) 24 hours after transfection. CAT enzyme activity was determined using the liquid scintillation counting protocol and components of the assay system kit (Promega). ^14C-labeled chloramphenicol[50–60 mCi(1.85–2.22 GBq)/mmol] was purchased from New England Nuclear (Boston, Mass.). CAT activity was normalized with β-galactosidase activity.
To confirm that pTpT enhances repair of BP-DNA adducts, at least in part, through p53 activation, p53-null H1299 cells were transfected with the p53 expression vector, and p53 protein expression was then confirmed by western blot analysis 48 hours after transfection.

[3] = test system: E2F1, p73, Mart-1, tyrosinase, TRP-1 and gp-100; assay: Western blot of MM-AN melanoma cells
Method: Proteins were analyzed by denaturing polyacrylamide gel electrophoresis (SDS-PAGE), using 10% polyacrylamide, and western blot analysis was done with an E2F1-specific monoclonal antibody (KH95 Santa Cruz Biotechnology, Santa Cruz, Calif.), and p73 analyzed using a polyclonal antibody (AB-4 from Oncogene Research Products, San Diego, Calif.). […] In order to determine the contribution of p73 to cell death, MM-AN melanoma cells were stably transfected with a dominant negative p73 (p73DN) (Irwin et al., Nature 402:645–648) construct or empty vector as a control (p73^DN-containing vector a gift from Dr. William Kaelin, Dana Farber Institute, Boston) and paired cultures were supplemented with 40 μM 11mer-1 or diluent alone, then harvested at 72 hours for FACS analysis. […] The above-mentioned differentiation markers are expressed in normal human melanocytes. It appears that the loss of expression of these antigens is a mechanism that a subset of human melanomas uses to escape immunosurveillance defenses. Several peptides from these antigens are targets of tumor infiltrating cytotoxic lymphocytes. Encouraging results have been obtained in vivo with different vaccination strategies using antigenic peptides from the above antigens.

Substance	mRNAs for GADD 45, ERCC 3 and SDI 1 [1]	plasmid repair efficiency versus diluent pre-treated cells ([2]; p53+ H1299 cells, high level of BP damage)	plasmid repaired more efficiently than in diluent pre-treated cells ([2]; p53+ H1299 cells, low level of BP damage)	repair capacity versus diluent ([2]; p53- H1299 cells)	induction of E2F1 and p73 ([3]; 40 μM)	differentiation markers Mart-1, tyrosinase, TRP-1 and gp-100 ([3]; 48–72 hours after treatment)
thymidine dinucleotide [pTpT]	up-regulated	more than three times as efficiently	80%±50%	the repair capacity was the same		
pGTTAGGGTTAG (DNA {P}-dGdTdTdAdGdGdGdTdTdAdG) [SEQ ID NO: 5]					the same pattern of induction for E2F1 and p73 as observed for Jurkat cells	upregulated
